Data reported in patent publication US5618813A, “Benzo[5.6]pyrano[2.3.4-ij]quinolizine and benzo[5.6]thiopyrano[2.3.4-ij]quinolizine derivatives as antibacterial and antineoplastic agents” (Abbott Laboratories, priority 1995, dated 1997).
In brackets after ≈: the same amount, converted by molar mass. Where a name gives a salt, the structure may show the parent alone. Read-outs that look alike come from different tables or passages of the source.

Columns and labels:
Experiment in all cases: In vitro antibacterial activity (MIC, agar dilution)
Format in all cases: cell-based
P. aeruginosa A5007 = conditions: Pseudomonas aeruginosa
Description: (§1) Each plate was inoculated with 1:100 (or 1:10 for slow-growing strains, primarily Micrococcus and Streptococcus) dilutions of up to 32 different microorganisms, using a Steers replicator block calibrated to deliver approximately 10^4 colony forming units (CFUs). The inoculated plates were incubated at from about 35° C. to about 37° C. for approximately 20-24 hours. In o addition, a control plate using BHI agar containing no test compound was prepared and incubated at the beginning and at the end of each test. The quinolone antibacterial ciprofloxacin was used as a control ("Cntl").
(§2) The MIC was defined as the lowest concentration of test compound yielding no growth (a slight haze or sparsely isolated colonies at the inoculum spot) as compared to the growth control containing no test compound.

Escherichia coli Juhl = test system: Escherichia coli Juhl
Description: as §1, §2

[1] = test system: Staph. aureus 1775 Cipro.R.; conditions: Staphylococcus aureus
Description: as §1, §2

E. coli H560 = conditions: Escherichia coli
Description: as §1, §2

[2] = test system: Strep. pyogenes 2458 INDUC; conditions: Streptococcus pyogenes
Description: as §1, §2

P. aeruginosa 2862 = conditions: Pseudomonas aeruginosa
Description: as §1, §2

Staph. aureus CMX 553 = conditions: Staphylococcus aureus, CMX553
Description: as §1, §2

Pseudomonas cepacia 296I = conditions: Burkholderia cepacia
Description: as §1, §2

Staph. epidermidis 3519 = conditions: Staphylococcus epidermidis
Description: as §1, §2

E. coli SS = conditions: Escherichia coli
Description: as §1, §2

[3] = test system: Strep. pyogenes 930 CONST; conditions: Streptococcus pyogenes
Description: as §1, §2

P. aeruginosa BMH 10 = conditions: Pseudomonas aeruginosa, BMH10
Description: as §1, §2

Staph. aureus 642A = conditions: Staphylococcus aureus
Description: as §1, §2

Staph. aureus NCTC10649 = conditions: Staphylococcus aureus
Description: as §1, §2

[4] = test system: Entero. faecium ATCC 8043; conditions: Enterococcus faecium, ATCC8043
Description: as §1, §2

P. aeruginosa 5263 = conditions: Pseudomonas aeruginosa
Description: as §1, §2

P. aeruginosa K799/WT = conditions: Pseudomonas aeruginosa
Description: as §1, §2

Staph. aureus 5278 = conditions: Staphylococcus aureus
Description: as §1, §2

M. luteus ATCC 4698 = conditions: Micrococcus luteus, ATCC4698
Description: as §1, §2

M. luteus ATCC 9341 = conditions: Micrococcus luteus, ATCC9341
Description: as §1, §2

[5] = test system: Strep. agalactiae CMX 508; conditions: Streptococcus agalactiae, CMX508
Description: as §1, §2

Strep. pyogenes EES61 = conditions: Streptococcus pyogenes
Description: as §1, §2

Staph. aureus A5177 = conditions: Staphylococcus aureus
Description: as §1, §2

E. coli DC-2 = conditions: Escherichia coli, DC2
Description: as §1, §2

[6] = test system: Enter. aerogenes ATCC 13048; conditions: Klebsiella aerogenes, ATCC13048
Description: as §1, §2

[7] = test system: Acinetobacter calcoaceticus CMX 669; conditions: CMX669
Description: as §1, §2

P. aeruginosa K799/61 = conditions: Pseudomonas aeruginosa
Description: as §1, §2

[8] = test system: Providencia stuartii CMX 640; conditions: CMX640
Description: as §1, §2

[9] = test system: Klebsiella pneumoniae ATCC 8045; conditions: ATCC8045
Description: as §1, §2

E. coli KNK 437 = conditions: Escherichia coli, KNK437
Description: as §1, §2

Staph. aureus ATCC 6538P = conditions: Staphylococcus aureus, ATCC6538P
Description: as §1, §2

Strep. bovis A5169 = conditions: Streptococcus equinus
Description: as §1, §2

Candida albicans CCH 442 = conditions: CCH442
Description: as §1, §2

[10] = test system: Nocardia asteroides ATCC 9970; conditions: ATCC9970
Description: as §1, §2

Myco. smegmatis ATCC 114 = conditions: Mycolicibacterium smegmatis, ATCC114
Description: as §1, §2

[11] = P. aeruginosa A5007, agar dilution, read-out: MIC
[12] = E. coli H560, agar dilution, read-out: MIC
[13] = P. aeruginosa 2862, agar dilution, read-out: MIC
[14] = E. coli SS, agar dilution, read-out: MIC
[15] = P. aeruginosa BMH 10, agar dilution, read-out: MIC
[16] = Entero. faecium ATCC 8043, agar dilution, read-out: MIC
[17] = P. aeruginosa 5263, agar dilution, read-out: MIC
[18] = P. aeruginosa K799/WT, agar dilution, read-out: MIC
[19] = M. luteus ATCC 4698, agar dilution, read-out: MIC
[20] = M. luteus ATCC 9341, agar dilution, read-out: MIC
[21] = E. coli DC-2, agar dilution, read-out: MIC
[22] = Acinetobacter calcoaceticus CMX 669, agar dilution, read-out: MIC
[23] = E. coli KNK 437, agar dilution, read-out: MIC
[24] = Strep. bovis A5169, agar dilution, read-out: MIC
[25] = Candida albicans CCH 442, agar dilution, read-out: MIC

SMILES | MIC (P. aeruginosa A5007; [11]) | MIC (Escherichia coli Juhl) | MIC [1] | MIC (E. coli H560; [12]) | MIC [2] | MIC (P. aeruginosa 2862; [13]) | MIC (Staph. aureus CMX 553) | MIC (Pseudomonas cepacia 296I) | MIC (Staph. epidermidis 3519) | MIC [3] | MIC (Staph. aureus 642A) | MIC (Staph. aureus NCTC10649) | MIC (Staph. aureus 5278) | MIC [5] | MIC (Strep. pyogenes EES61) | MIC (Staph. aureus A5177) | MIC [6] | MIC (P. aeruginosa K799/61) | MIC [8] | MIC (Staph. aureus ATCC 6538P) | further results
O=C(O)c1cc2c3c(c(N4CCOCC4)c(F)cn3c1=O)Oc1ccccc1-2 [Example 1, 1-(1-morpholinyl)-2-fluoro-5H-5-oxo-benzo[5.6]pyrano[2,3.4-ij]quinolizine-6-carboxylic acid] | > 100 mg/L | > 100 mg/L | 1.56 mg/L (≈ 4.08 µM) | > 100 mg/L | 6.2 mg/L (≈ 16.2 µM) | > 100 mg/L | 0.78 mg/L (≈ 2.04 µM) | 100 mg/L (≈ 262 µM) | 0.39 mg/L (≈ 1.02 µM) | 6.2 mg/L (≈ 16.2 µM) | 0.78 mg/L (≈ 2.04 µM) | 0.39 mg/L (≈ 1.02 µM) | 0.78 mg/L (≈ 2.04 µM) | 3.1 mg/L (≈ 8.11 µM) | 3.1 mg/L (≈ 8.11 µM) | 0.78 mg/L (≈ 2.04 µM) | > 100 mg/L | 12.5 mg/L (≈ 32.7 µM) | > 100 mg/L | 0.78 mg/L (≈ 2.04 µM) | MIC (E. coli SS; [14]): 0.39 mg/L (≈ 1.02 µM); MIC (P. aeruginosa BMH 10; [15]): > 100 mg/L; MIC [4, 16]: 25 mg/L (≈ 65.4 µM); MIC (P. aeruginosa 5263; [17]): > 100 mg/L; MIC (P. aeruginosa K799/WT; [18]): > 100 mg/L; MIC (M. luteus ATCC 4698; [19]): 0.39 mg/L (≈ 1.02 µM); MIC (M. luteus ATCC 9341; [20]): 1.56 mg/L (≈ 4.08 µM); MIC (E. coli DC-2; [21]): > 100 mg/L; MIC [7, 22]: 1.56 mg/L (≈ 4.08 µM); MIC ([9]; Klebsiella pneumoniae): 12.5 mg/L (≈ 32.7 µM); MIC (E. coli KNK 437; [23]): 50 mg/L (≈ 131 µM); MIC (Strep. bovis A5169; [24]): 25 mg/L (≈ 65.4 µM)
N[C@H]1CCC[C@H]2CN(c3c(F)cn4c(=O)c(C(=O)O)cc5c4c3Oc3ccccc3-5)C[C@H]21 (relative stereo) [Example 3, 1-(3aα, 4β, 7aα-4-aminooctahydro-[1H]-isoindol-2-yl)-2-fluoro-5H-5-oxo-benzo[5.6]pyrano[2.3.4-ij]quinolizine-6-carboxylic acid hydrochloride] | > 100 mg/L | 6.2 mg/L | 3.1 mg/L | 6.2 mg/L | 0.39 mg/L | > 100 mg/L | 0.78 mg/L | > 100 mg/L | 0.78 mg/L | 0.2 mg/L | 0.78 mg/L | 0.78 mg/L | 0.78 mg/L | 0.39 mg/L | 0.39 mg/L | 0.78 mg/L | 25 mg/L | 1.56 mg/L | 100 mg/L | 0.78 mg/L | MIC (E. coli SS; [14]): 0.78 mg/L; MIC (P. aeruginosa BMH 10; [15]): 100 mg/L; MIC [4]: 1.56 mg/L; MIC (P. aeruginosa 5263; [17]): > 100 mg/L; MIC (P. aeruginosa K799/WT; [18]): > 100 mg/L; MIC (M. luteus ATCC 4698; [19]): 0.78 mg/L; MIC (M. luteus ATCC 9341; [20]): 0.39 mg/L; MIC (Candida albicans CCH 442; [25]): > 100 mg/L; MIC (E. coli DC-2; [21]): 100 mg/L; MIC [7, 22]: 12.5 mg/L; MIC ([10]; Nocardia asteroides): 1.56 mg/L; MIC ([9]; Klebsiella pneumoniae): 1.56 mg/L; MIC (Myco. smegmatis ATCC 114): 0.78 mg/L; MIC (E. coli KNK 437; [23]): 25 mg/L; MIC (Strep. bovis A5169; [24]): 0.39 mg/L
O=C(O)c1cn(C2CC2)c2cc(N3CCNCC3)c(F)cc2c1=O [Ciprofloxacin, ciprofloxacin, reference compound] |  | 0.01 mg/L (≈ 0.0302 µM) | > 100 mg/L |  | 0.39 mg/L (≈ 1.18 µM) |  | 0.78 mg/L (≈ 2.35 µM) | 3.1 mg/L (≈ 9.36 µM) | 0.39 mg/L (≈ 1.18 µM) | 0.78 mg/L (≈ 2.35 µM) | 0.39 mg/L (≈ 1.18 µM) | 0.39 mg/L (≈ 1.18 µM) | 0.39 mg/L (≈ 1.18 µM) | 0.39 mg/L (≈ 1.18 µM) | 0.78 mg/L (≈ 2.35 µM) | 0.39 mg/L (≈ 1.18 µM) | 0.02 mg/L (≈ 0.0604 µM) | 0.02 mg/L (≈ 0.0604 µM) | 0.78 mg/L (≈ 2.35 µM) | 0.2 mg/L (≈ 0.604 µM) | MIC (P. aeruginosa A5007; A5007): 0.1 mg/L (≈ 0.302 µM); MIC (E. coli H560; H560): 0.01 mg/L (≈ 0.0302 µM); MIC (P. aeruginosa 2862; 2862): 12.5 mg/L (≈ 37.7 µM); MIC (E. coli SS): 0.005 mg/L (≈ 0.0151 µM); MIC (P. aeruginosa BMH 10): 0.1 mg/L (≈ 0.302 µM); MIC [4, 16]: 0.39 mg/L (≈ 1.18 µM); MIC (P. aeruginosa 5263; 5263): 12.5 mg/L (≈ 37.7 µM); MIC (P. aeruginosa K799/WT; K799/WT): 0.1 mg/L (≈ 0.302 µM); MIC (M. luteus ATCC 4698): 0.78 mg/L (≈ 2.35 µM); MIC (M. luteus ATCC 9341): 1.56 mg/L (≈ 4.71 µM); MIC (Candida albicans CCH 442; Candida albicans): > 100 mg/L; MIC (E. coli DC-2): 0.2 mg/L (≈ 0.604 µM); MIC ([7]; Acinetobacter calcoaceticus): 0.39 mg/L (≈ 1.18 µM); MIC ([10]; Nocardia asteroides): 12.5 mg/L (≈ 37.7 µM); MIC ([9]; Klebsiella pneumoniae): 0.02 mg/L (≈ 0.0604 µM); MIC (Myco. smegmatis ATCC 114): 0.78 mg/L (≈ 2.35 µM); MIC (E. coli KNK 437): 0.2 mg/L (≈ 0.604 µM); MIC (Strep. bovis A5169; A5169): 1.56 mg/L (≈ 4.71 µM)
NC1CCN(c2c(F)cn3c(=O)c(C(=O)O)cc4c3c2Oc2ccccc2-4)C1 (centres unmarked) [Example 2, 1-(3-amino-pyrrolidinyl)-2-fluoro-5H-5-oxo-benzo[5,6]pyrano[2.3.4-ij]quinolizine-6-carboxylic acid hydrochloride] | 100 mg/L | 3.1 mg/L | 6.2 mg/L | 3.1 mg/L | 3.1 mg/L | > 100 mg/L | 6.2 mg/L | > 100 mg/L | 3.1 mg/L | 3.1 mg/L | 6.2 mg/L | 3.1 mg/L | 6.2 mg/L | 3.1 mg/L | 3.1 mg/L | 6.2 mg/L | 6.2 mg/L | 6.2 mg/L | > 100 mg/L | 6.2 mg/L | MIC (E. coli SS; [14]): 0.78 mg/L; MIC (P. aeruginosa BMH 10; [15]): 25 mg/L; MIC [4, 16]: 6.2 mg/L; MIC (P. aeruginosa 5263; [17]): > 100 mg/L; MIC (P. aeruginosa K799/WT; [18]): 50 mg/L; MIC (M. luteus ATCC 4698; [19]): 3.1 mg/L; MIC (M. luteus ATCC 9341; [20]): 3.1 mg/L; MIC (Candida albicans CCH 442; [25]): > 100 mg/L; MIC (E. coli DC-2; [21]): 12.5 mg/L; MIC [7, 22]: 6.2 mg/L; MIC ([10]; Nocardia asteroides ATCC 9970, agar dilution, read-out: MIC): 3.1 mg/L; MIC ([9]; Klebsiella pneumoniae ATCC 8045, agar dilution, read-out: MIC): 1.56 mg/L; MIC (Myco. smegmatis ATCC 114): 3.1 mg/L; MIC (E. coli KNK 437; [23]): 3.1 mg/L; MIC (Strep. bovis A5169; [24]): 3.1 mg/L
